The source of these data is PMC8770581 (ChemMedChem, 2021).

The target of one series is α-syn fibrils (Homo sapiens, UniProt P37840). Briefly: α-Synuclein fibril/ligand saturation binding assay.
The nature of series [1]: Absorption/emission maxima and fluorescence quantum yield of free ligand in PBS. Type of series: physicochemical. Conditions: free ligand in PBS.
The mark [2] stands for this setting: Kd α-syn, Table 1, synthetic α-syn fibrils 2.5 μM, 1 hour, mean ± SD (n = 3).
Where [3] appears, read: Kd α-syn (reported as no binding), α-syn fibrils, saturation binding.

For orientation: Kd means the constant that tells how readily two partners part at equilibrium. Low values mean tighter binding, high ones weaker binding. At α-syn fibrils (setting [2]), `O=C1C(=C/C=C/c2ccccc2)C(=O)c2ccccc21` [compound 16, (E)-2-(3-Phenylallylidene)-1H-indene-1,3(2H)-dione] gave a Kd greater than 2000 nM. In series [1], this compound came in with an Absmax of 331 and an Emmax of 421.

In the case of `CN(C)c1ncc(-c2ccc(/C=C3/CCc4ccccc4C3=O)s2)cn1` [compound 51, (Z)-2-((5-(2-(Dimethylamino)pyrimidin-5-yl)thiophen-2-yl)methylene)-3,4-dihydronaphthalen-1(2H)-one], the Kd on α-syn fibrils (setting [2]) turned out to be 107 ± 7.5 nM. Besides, in series [1], the Absmax was 442 and the Emmax amounted to 613.

`CN(C)c1ccc(-c2ccc(/C=C3/Cc4ccccc4C3=O)s2)cc1` [compound 40, (Z)-2-((5-(4-(Dimethylamino)phenyl)thiophen-2-yl)methylene)-2,3-dihydro-1H-inden-1-one] showed a Kd at α-syn fibrils (setting [2]) of 160 ± 7.1 nM. In series [1], this compound gave an Absmax of 413 and an Emmax of 597.

On to `O=C1C(=Cc2cc3ccccc3[nH]2)C(=O)c2ccccc21` [compound 55, 2-((1H-Indol-2-yl)methylene)-1H-indene-1,3(2H)-dione], for which the Kd on α-syn fibrils (setting [2]) amounted to 1180 ± 88 nM. Further, in series [1], the Absmax amounted to 384 and the Emmax came to 519.

As to `O=C1C(=C/C=C/c2ccc([N+](=O)[O-])cc2)C(=O)c2ccccc21` [compound 22, (E)-2-(3-(4-Nitrophenyl)allylidene)-1H-indene-1,3(2H)-dione], on α-syn fibrils (setting [2]), the Kd worked out at 1330 ± 182 nM. In series [1], this compound had an Absmax of 336 and an Emmax of 460.

`O=C(O)c1ccc(-c2ccc(/C=C/C=C3C(=O)c4ccccc4C3=O)cc2)cc1` [compound 34, (E)-4'-(3-(1,3-Dioxo-1,3-dihydro-2H-inden-2-ylidene)prop-1-en-1-yl)-[1,1'-biphenyl]-4-carboxylic acid] registered a Kd at α-syn fibrils (setting [2]) of 1430 ± 46.8 nM. In series [1], the Absmax was 358 and the Emmax is 409.

Compound `O=C1C(=CC2=C(Cl)c3ccccc3CC2)C(=O)c2ccccc21` [compound 52, 2-((1-Chloro-3,4-dihydronaphthalen-2-yl)methylene)-1H-indene-1,3(2H)-dione] came in with a Kd at α-syn fibrils (setting [2]) greater than 2000 nM. Moreover, in series [1], the Absmax was found to be 354 and the Emmax is given as 406.

In the case of `O=C1/C(=C/C=C/c2ccc(Br)cc2)Cc2ccc(O)cc21` [compound 11, (E)-2-((E)-3-(4-Bromophenyl)allylidene)-6-hydroxy-2,3-dihydro-1H-inden-1-one], the Kd on α-syn fibrils (setting [3]) was no less than 2000 nM; on α-syn fibrils (setting [2]), greater than 2000 nM. Also, the Absmax in series [1] was found to be 335. Besides, in series [1], the Emmax came out at 429.

The compound `CN(C)c1ncc(-c2ccc(/C=C3/Cc4ccccc4C3=O)s2)cn1` [compound 41, (Z)-2-((5-(2-(Dimethylamino)pyrimidin-5-yl)thiophen-2-yl)methylene)-2,3-dihydro-1H-inden-1-one] yielded a dissociation constant (Kd) at α-syn fibrils (setting [2]) of 272 ± 29.9 nM. In series [1], this compound returned an Absmax of 410 and an Emmax of 567.

`O=C1/C(=C/C=C/c2ccc([N+](=O)[O-])cc2)Cc2ccc(O)cc21` [compound 13, (E)-6-Hydroxy-2-((E)-3-(4-nitrophenyl)allylidene)-2,3-dihydro-1H-inden-1-one] displayed a Kd at α-syn fibrils (setting [2]) of 726 ± 23.6 nM. In series [1], this compound had an Absmax of 356 and an Emmax of 443.

In the case of `COc1cc(/C=C/C=C2\Cc3cc(F)cc(F)c3C2=O)ccc1O` [compound 14, (E)-5,7-Difluoro-2-((E)-3-(4-hydroxy-3-methoxyphenyl)allylidene)-2,3-dihydro-1H-inden-1-one], the Kd at α-syn fibrils (setting [2]) is 241 ± 47.9 nM. In series [1], the Absmax was 338 and the Emmax amounted to 545.

For `CN(C)c1ncc(-c2ccc(/C=C3/Cc4ccc(O)cc4C3=O)s2)cn1` [compound 43, (Z)-2-((5-(2-(Dimethylamino)pyrimidin-5-yl)thiophen-2-yl)methylene)-6-hydroxy-2,3-dihydro-1H-inden-1-one], the Kd on α-syn fibrils (setting [2]) worked out at 236 ± 10.4 nM. In series [1], this compound yielded an Absmax of 386 and an Emmax of 572.

In turn, `O=C1/C(=C/C=C/c2ccc(-c3ccc(CO)cc3)cc2)Cc2ccc(O)cc21` [compound 31, (E)-6-Hydroxy-2-((E)-3-(4'-(hydroxymethyl)-[1,1'-biphenyl]-4-yl)allylidene)-2,3-dihydro-1H-inden-1-one] registered a Kd on α-syn fibrils (setting [2]) of 126 ± 5 nM. Further, in series [1], the Absmax stood at 368 and the Emmax amounted to 540.

As for `O=C1C(=Cc2coc3ccc(Br)cc3c2=O)C(=O)c2ccccc21` [compound 54, 2-((6-Bromo-4-oxo-4H-chromen-3-yl)methylene)-1H-indene-1,3(2H)-dione], the Kd on α-syn fibrils (setting [2]) is greater than 2000 nM. Moreover, in series [1], the Absmax worked out at 336 and the Emmax worked out at 406.

Regarding `COc1cc(-c2ccc(/C=C3/CCc4ccccc4C3=O)s2)ccc1O` [compound 50, (Z)-2-((5-(4-Hydroxy-3-methoxyphenyl)thiophen-2-yl)methylene)-3,4-dihydronaphthalen-1(2H)-one], binding on α-syn fibrils (setting [2]) was put at a Kd of 111 ± 7.8 nM. In series [1], this compound yielded an Absmax of 417 and an Emmax of 596.

`O=C1/C(=C\c2ccc(-c3ccc(CO)cc3)s2)CCc2ccccc21` [compound 49, (Z)-2-((5-(4-(Hydroxymethyl)phenyl)thiophen-2-yl)methylene)-3,4-dihydronaphthalen-1(2H)-one] displayed an equilibrium dissociation constant (Kd) at α-syn fibrils (setting [2]) of 162 ± 13.6 nM. In series [1], this compound showed an Absmax of 372 and an Emmax of 551.

In series [1], `N#Cc1ccc(-c2ccc(/C=C/C=C3\Cc4ccc(O)cc4C3=O)cc2)s1` [compound 33, 5-(4-((E)-3-((E)-6-Hydroxy-1-oxo-1,3-dihydro-2H-inden-2-ylidene)prop-1-en-1-yl)phenyl)thiophene-2-carbonitrile] came in with an Absmax of 398 and an Emmax of 565.

Compound `O=C1/C(=C\c2cc(-c3ccc(CO)cc3)cs2)Cc2ccccc21` [compound 46, (Z)-2-((4-(4-(Hydroxymethyl)phenyl)thiophen-2-yl)methylene)-2,3-dihydro-1H-inden-1-one] gave a Kd at α-syn fibrils (setting [2]) of 153 ± 7.9 nM. In series [1], this compound registered an Absmax of 368 and an Emmax of 454.

Turning to `CN(C)c1ccc(C=CC=C2C(=O)Oc3ccc(Br)cc3C2=O)cc1` [compound 28, 6-Bromo-3-(3-(4-(dimethylamino)phenyl)allylidene)chromane-2,4-dione], the Kd at α-syn fibrils (setting [3]) is no less than 2000 nM; at α-syn fibrils (setting [2]) it was greater than 2000 nM. This compound yielded an Absmax in series [1] of 405.

The compound `O=C1/C(=C\c2cc(-c3cccnc3)cs2)Cc2ccccc21` [compound 47, (Z)-2-((4-(Pyridin-3-yl)thiophen-2-yl)methylene)-2,3-dihydro-1H-inden-1-one] returned a Kd at α-syn fibrils (setting [2]) of 333 ± 28.3 nM. Also, in series [1], the Absmax came out at 340 and the Emmax is recorded as 404.

Consider `Cc1ccc2occ(/C=C3/Cc4ccc(O)cc4C3=O)c(=O)c2c1` [compound 57, (Z)-3-((6-Hydroxy-1-oxo-1,3-dihydro-2H-inden-2-ylidene)methyl)-6-methyl-4H-chromen-4-one], for which the dissociation constant (Kd) on α-syn fibrils (setting [2]) turned out to be 656 ± 88 nM. In series [1], this compound returned an Absmax of 326 and an Emmax of 388.

Take `O=C1C(=Cc2cc(-c3ccc(Br)cc3)no2)C(=O)c2ccccc21` [compound 56, 2-((3-(4-Bromophenyl)isoxazol-5-yl)methylene)-1H-indene-1,3(2H)-dione]: the Kd on α-syn fibrils (setting [3]) was no less than 2000 nM; at α-syn fibrils (setting [2]) it was greater than 2000 nM. The same compound had an Absmax in series [1] of 321. The compound also returned an Emmax in series [1] of 409.

In series [1], `CN(C)c1ccc(-c2ccc(/C=C/C=C3\Cc4ccc(O)cc4C3=O)cc2)cc1` [compound 30, (E)-2-((E)-3-(4'-(Dimethylamino)-[1,1'-biphenyl]-4-yl)allylidene)-6-hydroxy-2,3-dihydro-1H-inden-1-one] showed an Absmax of 414 and an Emmax of 597.

The compound `COc1cc(C=CC=C2C(=O)Oc3ccccc3C2=O)ccc1O` [compound 25, 3-(3-(4-Hydroxy-3-methoxyphenyl)allylidene)chromane-2,4-dione] gave a Kd on α-syn fibrils (setting [2]) of 116.3 ± 0.7 nM. In series [1], this compound yielded an Absmax of 490 and an Emmax of 621.

At α-syn fibrils (setting [2]), `O=C1/C(=C/C=C/c2ccc([N+](=O)[O-])cc2)Cc2cc(F)cc(F)c21` [compound 15, (E)-5,7-Difluoro-2-((E)-3-(4-nitrophenyl)allylidene)-2,3-dihydro-1H-inden-1-one] gave a Kd of 398.1 ± 3.9 nM. In series [1], this compound showed an Absmax of 330 and an Emmax of 439.

In turn, `Cc1ccc2occ(C=C3C(=O)c4ccccc4C3=O)c(=O)c2c1` [compound 53, 2-((6-Methyl-4-oxo-4H-chromen-3-yl)methylene)-1H-indene-1,3(2H)-dione] returned a Kd at α-syn fibrils (setting [2]) greater than 2000 nM. In series [1], this compound had an Absmax of 428 and an Emmax of 471.

Take `Nc1cccc(-c2ccc(/C=C3/Cc4ccccc4C3=O)s2)c1` [compound 38, (Z)-2-((5-(3-Aminophenyl)thiophen-2-yl)methylene)-2,3-dihydro-1H-inden-1-one]: the Kd at α-syn fibrils (setting [2]) turned out to be 160 ± 10 nM. In series [1], this compound showed an Absmax of 408 and an Emmax of 563.

For the compound `CN(C)c1ccc(C=CC=C2C(=O)Oc3ccccc3C2=O)cc1` [compound 26, 3-(3-(4-(Dimethylamino)phenyl)allylidene)chromane-2,4-dione], the Kd on α-syn fibrils (setting [2]) was determined as 119 ± 21.1 nM. In series [1], the Absmax was found to be 440 and the Emmax was 657.

For the compound `O=C1/C(=C/C=C/c2ccc([N+](=O)[O-])cc2)Cc2ccccc21` [compound 10, (E)-2-((E)-3-(4-Nitrophenyl)allylidene)-2,3-dihydro-1H-inden-1-one], in series [1], the Absmax stood at 336 and the Emmax is given as 438.

For the compound `CN(C)c1ccc(/C=C/C=C2C(=O)c3ccccc3C2=O)cc1` [compound 19, (E)-2-(3-(4-(Dimethylamino)phenyl)allylidene)-1H-indene-1,3(2H)-dione], the Absmax in series [1] is recorded as 416.

In series [1], “3-(3-(4-(Dimethylamino)phenyl)allylidene)chromane-2,4-dione [compound 27]” came in with an Absmax of 442 and an Emmax of 661.
